Assay results reported in the supplement of paper PMC9512659.

Columns and labels:
[1] = system: Mycobacterium tuberculosis Erdman (pMV306hsp+LuxG13); experiment: GRinf, normalised growth-rate inhibition at infinite dose (GR value (unitless, negative = killing)); higher = less potent
Protocol: (§1)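 DiaMOND pairwise dose responses of an equipotent two-drug mixture (1.5-fold, 10-dose series) against autoluminescent M. tuberculosis Erdman in 384-well plates. Growth inhibition was read by OD600 (luminescence for dormancy) in seven media at a constant and a terminal time point; metrics are means of at least biological duplicates. Einf and AUC25 higher = more potent; GRinf lower = more potent; log2FIC negative = synergy.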

[2] = system: Mycobacterium tuberculosis Erdman (pMV306hsp+LuxG13); experiment: Einf, effect of the drug pair at infinite dose (maximum growth inhibition) (fraction inhibition (0-1)); higher = more potent; extreme values may be limits of the assay
Protocol: as §1

[3] = system: Mycobacterium tuberculosis Erdman (pMV306hsp+LuxG13); experiment: log2 fractional inhibitory concentration at 50% inhibition (log2 FIC); higher = more antagonistic
Protocol: as §1

[4] = system: Mycobacterium tuberculosis Erdman (pMV306hsp+LuxG13); experiment: AUC25, normalised area under the dose-response curve up to IC25 (normalised AUC (unitless)); higher = more potent
Protocol: as §1

[5] = system: Mycobacterium tuberculosis Erdman (pMV306hsp+LuxG13); experiment: log2 fractional inhibitory concentration at 90% inhibition (log2 FIC); higher = more antagonistic
Protocol: as §1

CC[C@@H](CO)NCCN[C@@H](CC)CO [ethambutol] + CC(C)=CCC/C(C)=C/CNCCNC1C2CC3CC(C2)CC1C3 [SQ109]
Conditions | AUC25, [4] | Einf, [2] | GRinf, [1] | log2 fractional inhibitory concentration, [3] | log2 fractional inhibitory concentration, [5]
growth medium: butyrate 5 mM, time point: constant time point | 0.0766 | 0.886 | 0.0457 | 0.614 | –
growth medium: butyrate 5 mM, time point: terminal time point | 0.0668 | 0.937 | 0.0593 | 0.497 | 0.586
growth medium: cholesterol 0.05 mM, time point: constant time point | 0.0769 | 0.732 | -0.435 | 0.488 | –
growth medium: cholesterol 0.2 mM (cholesterol-high), time point: constant time point | 0.0635 | 1 | -0.949 | 0.679 | 0.489
growth medium: cholesterol 0.2 mM (cholesterol-high), time point: terminal time point | 0.0641 | 1 | -0.86 | 0.546 | 0.354
growth medium: standard 7H9 OADC glycerol, time point: constant = terminal time point (4.2 d) | 0.0512 | 0.843 | 0.238 | 0.0946 | –
growth medium: valerate 0.1%, time point: constant time point | 0.0745 | 0.902 | 0.155 | 0.751 | 0.158
growth medium: valerate 0.1%, time point: terminal time point | 0.0778 | 0.9 | 0.175 | 0.656 | 0.34

growth medium: hypoxic dormancy (butyrate + nitrate), then recovery
Conditions | AUC25, [4] | Einf, [2] | GRinf, [1] | log2 fractional inhibitory concentration, [3] | log2 fractional inhibitory concentration, [5]
time point: constant time point | 0.0928 | 0.988 | -0.333 | -0.601 | -0.745
time point: terminal time point | 0.0578 | 0.96 | 0.144 | 0.71 | –

NNC(=O)c1ccncc1 [isoniazid] + CC(=O)NC[C@H]1CN(c2ccc(N3CCSCC3)c(F)c2)C(=O)O1 [sutezolid]
Conditions | AUC25, [4] | Einf, [2] | GRinf, [1] | log2 fractional inhibitory concentration, [3] | log2 fractional inhibitory concentration, [5]
growth medium: acidic pH 5.7, glycerol, time point: constant time point | 0.0914 | 0.846 | -0.123 | 0.123 | –
growth medium: acidic pH 5.7, glycerol, time point: terminal time point | 0.0816 | 0.972 | -0.174 | 0.103 | -0.00954
growth medium: butyrate 5 mM, time point: constant time point | 0.0778 | 0.901 | 0.0944 | 0.357 | –
growth medium: butyrate 5 mM, time point: terminal time point | 0.0468 | 0.944 | 0.104 | 0.264 | 0.0935
growth medium: cholesterol 0.05 mM, time point: constant time point | 0.026 | 0.988 | -0.536 | 0.559 | -0.209
growth medium: cholesterol 0.05 mM, time point: terminal time point | 0.113 | 1 | -1 | 0.493 | 0.0381
growth medium: cholesterol 0.2 mM (cholesterol-high), time point: constant time point | 0.0844 | 0.994 | -0.83 | 0.0991 | 0.448
growth medium: cholesterol 0.2 mM (cholesterol-high), time point: terminal time point | 0.119 | 1 | -0.942 | -0.302 | 0.592
growth medium: standard 7H9 OADC glycerol, time point: constant = terminal time point (4.2 d) | 0.0428 | 0.956 | 0.0933 | -0.00832 | -0.586
growth medium: valerate 0.1%, time point: constant time point | 0.0744 | 0.872 | -0.342 | 1.2 | –
growth medium: valerate 0.1%, time point: terminal time point | 0.0761 | 0.982 | -0.0769 | 0.633 | 0.724

growth medium: hypoxic dormancy (butyrate + nitrate), then recovery
Conditions | AUC25, [4] | Einf, [2] | GRinf, [1] | log2 fractional inhibitory concentration, [3] | log2 fractional inhibitory concentration, [5]
time point: constant time point | 0.0513 | 0.987 | 0.3 | 0.243 | -0.281
time point: terminal time point | 0.0273 | 0.958 | 0.448 | 0.741 | -0.485

NNC(=O)c1ccncc1 [isoniazid] + CC(C)=CCC/C(C)=C/CNCCNC1C2CC3CC(C2)CC1C3 [SQ109]
Conditions | AUC25, [4] | Einf, [2] | GRinf, [1] | log2 fractional inhibitory concentration, [3] | log2 fractional inhibitory concentration, [5]
growth medium: butyrate 5 mM, time point: constant time point | 0.0624 | 0.897 | 0.0429 | 0.35 | –
growth medium: butyrate 5 mM, time point: terminal time point | 0.0434 | 0.944 | 0.0572 | 0.29 | 0.00828
growth medium: cholesterol 0.05 mM, time point: constant time point | 0.1 | 0.84 | -0.682 | 1.02 | –
growth medium: cholesterol 0.2 mM (cholesterol-high), time point: constant time point | 0.0635 | 0.999 | -0.997 | 0.5 | 0.434
growth medium: cholesterol 0.2 mM (cholesterol-high), time point: terminal time point | 0.0743 | 1 | -0.87 | 0.189 | 0.311
growth medium: standard 7H9 OADC glycerol, time point: constant = terminal time point (4.2 d) | 0.0551 | 0.858 | 0.218 | 0.45 | –
growth medium: valerate 0.1%, time point: constant time point | 0.0611 | 0.964 | -0.00837 | 0.052 | 0.14
growth medium: valerate 0.1%, time point: terminal time point | 0.0646 | 0.968 | -0.0113 | 0.109 | 0.00427

growth medium: hypoxic dormancy (butyrate + nitrate), then recovery
Conditions | AUC25, [4] | Einf, [2] | GRinf, [1] | log2 fractional inhibitory concentration, [3] | log2 fractional inhibitory concentration, [5]
time point: constant time point | 0.0841 | 0.994 | -0.408 | -0.42 | 0.0195
time point: terminal time point | 0.0403 | 0.96 | 0.13 | -0.641 | -0.76

COc1c(N2C[C@@H]3CCCN[C@@H]3C2)c(F)cc2c(=O)c(C(=O)O)cn(C3CC3)c12 [moxifloxacin] + CC(=O)NC[C@H]1CN(c2ccc(N3CCSCC3)c(F)c2)C(=O)O1 [sutezolid]
Conditions | AUC25, [4] | Einf, [2] | GRinf, [1] | log2 fractional inhibitory concentration, [3] | log2 fractional inhibitory concentration, [5]
growth medium: acidic pH 5.7, glycerol, time point: constant time point | 0.153 | 0.884 | -0.618 | -0.766 | –
growth medium: acidic pH 5.7, glycerol, time point: terminal time point | 0.126 | 0.994 | -0.27 | -0.628 | 0.0336
growth medium: butyrate 5 mM, time point: constant time point | 0.0856 | 0.921 | 0.0433 | 2.18 | –
growth medium: butyrate 5 mM, time point: terminal time point | 0.0636 | 0.96 | 0.0229 | 1.99 | 2.06
growth medium: cholesterol 0.05 mM, time point: constant time point | 0.0609 | 0.744 | -0.918 | 0.274 | –
growth medium: cholesterol 0.2 mM (cholesterol-high), time point: constant time point | 0.0941 | 1 | -0.886 | -0.358 | -0.0409
growth medium: cholesterol 0.2 mM (cholesterol-high), time point: terminal time point | 0.12 | 1 | -0.872 | -0.612 | 0.362
growth medium: standard 7H9 OADC glycerol, time point: constant = terminal time point (4.2 d) | 0.0573 | 0.969 | 0.0204 | -0.0683 | -0.545
growth medium: valerate 0.1%, time point: constant time point | 0.097 | 0.857 | -0.0498 | 0.387 | –
growth medium: valerate 0.1%, time point: terminal time point | 0.0564 | 0.963 | -0.0149 | 0.257 | -0.156

growth medium: hypoxic dormancy (butyrate + nitrate), then recovery
Conditions | AUC25, [4] | Einf, [2] | GRinf, [1] | log2 fractional inhibitory concentration, [3] | log2 fractional inhibitory concentration, [5]
time point: constant time point | 0.0806 | 0.95 | 0.218 | 0.0759 | -1.18
time point: terminal time point | 0.0478 | 0.902 | 0.508 | 0.726 | 0.502
